Converted amounts (≈) assume the structure as drawn. Inconclusive results are not listed. The source made the active and inactive calls. How the calls were made is not given here.
System: M. tuberculosis H37Rv growth inhibition
Assay: Mycobacterium tuberculosis H37Rv growth inhibition, cell based, confirmatory dose response (AID 1949);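 further: bacteria grown 7 days with compound before Alamar blue readout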

Structure (SMILES)	IC50
CC(=O)N(C)c1ccc(OCC(O)Cn2c3ccc(Cl)cc3c3cc(Cl)ccc32)cc1 (configuration not stated)	2.96 µg/mL (≈ 6.47 µM)
Cc1ccc(SCC(=O)Nc2cccc(C)c2)cc1	10.9 µg/mL (≈ 40.2 µM)
O=[N+]([O-])c1cccc(S(=O)(=O)Nc2cc(Br)c(O)c3ccccc23)c1	5.32 µg/mL (≈ 12.6 µM)
O=C(NCc1ccc(Cl)c(Cl)c1)C(Cl)Cl	10.6 µg/mL (≈ 37.1 µM)
CCn1cc(C(=O)O)c(=O)c2cnc(N3CCN(C(=S)Nc4sc5c(c4C(=O)OC)CCCCCC5)CC3)nc21	> 50 µg/mL (inactive)
CCOc1ccc(Nc2nc(NCc3ccco3)c3ccccc3n2)cc1	1.36 µg/mL (≈ 3.77 µM)
COc1cc(Br)cc2cc(C(=O)Nc3ccccc3O)c(=O)oc12	> 50 µg/mL (inactive)
O=C(Nc1ccc2c(c1)CCC2)c1ccc(Br)s1	1.45 µg/mL (≈ 4.5 µM)
C=CCn1c(Sc2ccc(C(F)(F)F)cc2[N+](=O)[O-])nnc1-c1ccccc1Cl	0.19 µg/mL (≈ 0.431 µM)
COc1ccccc1-c1c(C)oc2cc(OCC(=O)OCc3ccccc3)ccc2c1=O	0.36 µg/mL (≈ 0.836 µM)
O=C(CC(O)(C(F)(F)F)C(F)(F)F)Nc1ccc(Cl)c(Cl)c1	1.51 µg/mL (≈ 4.08 µM)
O=C(OCc1c(Cl)cccc1Cl)c1cc2ccccc2oc1=O	> 50 µg/mL (inactive)
C=CCc1cc(Cl)ccc1OCCCCn1ccnc1	2.09 µg/mL (≈ 7.19 µM)
CCOC(=O)Cn1nnc(-c2ccc(OCc3ccccc3F)cc2)n1	0.28 µg/mL (≈ 0.786 µM)
Cn1nc([N+](=O)[O-])nc1Sc1ncnn1-c1ccccc1	2.98 µg/mL (≈ 9.83 µM)
O=S1(=O)C=C(Sc2nnc(-c3ccccc3)o2)c2ccccc21	0.31 µg/mL (≈ 0.905 µM)
O=c1oc(-c2ccccc2Br)nc2sc3c(c12)CCCC3	0.98 µg/mL (≈ 2.71 µM)
Cc1ccc(SC(C)C(=O)Nc2ccc(Cl)c(Cl)c2)cc1 (configuration not stated)	12.3 µg/mL (≈ 36.1 µM)
CCn1c2ccccc2c2cc(CN3CCC(N4CCN(c5ccccc5OC)CC4)CC3)ccc21	22.4 µg/mL (≈ 46.4 µM)
Cc1ccc(-c2nn(-c3ccccc3)cc2CNCc2ccccc2)cc1	1.11 µg/mL (≈ 3.14 µM)
COC(=O)c1c(C)cc(=O)n2c1[nH]c1ccccc12	3.52 µg/mL (≈ 13.7 µM)
CC(NC(=O)NNC(=O)c1ccncc1)(C(F)(F)F)C(F)(F)F	0.18 µg/mL (≈ 0.523 µM)
Cc1ccc2nc(-c3ccncc3)cc(C(=O)Nc3ccc(C(=O)N4CCCC4)cc3)c2c1	8.89 µg/mL (≈ 20.4 µM)
CC(C)(C)C(=O)Nc1nc2c(Cl)c(Cl)ccc2s1	7.02 µg/mL (≈ 23.2 µM)

Structure (SMILES)	IC50
COc1cc(C=O)ccc1OC(=O)c1cccs1	4.13 µg/mL (≈ 15.7 µM)
COC(=O)c1ccc(NC(=O)CSc2nnc(-c3ccc(Br)cc3)o2)cc1	5.83 µg/mL (≈ 13 µM)
COC(=O)CSc1nnc(NC(=O)c2ccc(Cl)cc2)s1	0.16 µg/mL (≈ 0.465 µM)
Cn1c(NC(=S)Nc2ccccc2)nc2ccccc21	0.35 µg/mL (≈ 1.24 µM)
N#Cc1ccc(NC(=O)Nc2ccc(Cl)cc2)cc1	0.51 µg/mL (≈ 1.88 µM)
COc1cccc(CN2CCC(N(CCc3ccccc3)Cc3ccccc3)CC2)c1OC	6.32 µg/mL (≈ 14.2 µM)
CCOC(=O)C(Oc1ccc2oc(C)c(C(=O)OC)c2c1)c1ccccc1 (configuration not stated)	2.95 µg/mL (≈ 8.01 µM)
Cc1cccc(C(=O)NC(=S)N2CCC(C)CC2)c1	2.97 µg/mL (≈ 10.7 µM)
Nc1nc2ccccc2n1CCOc1cccc2ccccc12	4.95 µg/mL (≈ 16.3 µM)
Cc1cc(Br)c2[nH]c(O)c(N=NC(=O)COc3ccc(C(C)(C)C)cc3C)c2c1	27 µg/mL (≈ 59 µM)
O=C(CC1(O)C(=O)N(CCc2ccccc2)c2ccc(Cl)cc21)c1ccc(Cl)s1 (configuration not stated)	5.18 µg/mL (≈ 11.6 µM)
COc1cccc(OC)c1C(=O)Nc1ccc(Cl)c(-c2nc3ccccc3s2)c1	1.49 µg/mL (≈ 3.51 µM)
Cc1cccc(OCCn2cnc3cc(C)c(C)cc32)c1	4.52 µg/mL (≈ 16.1 µM)
Cc1ccc(OCCN2CCN(c3nc(NCc4ccccc4)c4ccccc4n3)CC2)cc1	1.42 µg/mL (≈ 3.13 µM)
O=C(CCNc1cccc(Cl)c1)c1ccc([N+](=O)[O-])cc1	2.87 µg/mL (≈ 9.42 µM)
COC(=O)C(C)Sc1nnc(-c2ccc(Br)cc2)o1 (configuration not stated)	0.99 µg/mL (≈ 2.88 µM)
Cc1ccc(S(=O)(=O)NC(=O)Oc2cccc3cccnc23)cc1	3.32 µg/mL (≈ 9.7 µM)
COC(C)(C)C#CC(=O)c1cccc2ccccc12	2.78 µg/mL (≈ 11 µM)
COc1cc(Br)cc2cc(C(=O)Nc3cccc(C(F)(F)F)c3)c(=O)oc12	0.11 µg/mL (≈ 0.249 µM)
COc1ccc(CNc2ccccc2O)cc1OC	16.3 µg/mL (≈ 62.7 µM)
Cc1cc(Sc2ncnc(N)c2[N+](=O)[O-])ncn1	1.7 µg/mL (≈ 6.43 µM)
Cc1ccc(C(C)(C)C)c(OCCCn2ccnc2)c1	3.87 µg/mL (≈ 14.2 µM)
C=CCN1C(=O)C(O)(CC(=O)c2ccc(C)cc2C)c2ccccc21 (configuration not stated)	14.6 µg/mL (≈ 43.5 µM)
